Data from patent US20260199293A1, “2-Arylbenzimidazole Compounds for the Treatment of Hemoglobinopathies” (TRANQUIS THERAPEUTICS, INC., priority 2022, published 2026).
Blank lines part the entries; values can stand above or below the molecule they belong to.

What was measured:
[1] = test system: human primary erythroid progenitor CD34+ cells; experiment: Effects on human primary erythroid progenitor CD34+ cells (F cells by flow cytometry, globin mRNA by qRT-PCR), Example 7; format: cell-based; details: for percentage of HbF-positive cells (F cells): flow cytometry
Experimental: The effects of the compounds and formulations described in Sections 3.2 and 3.3 hereinabove on human primary erythroid progenitor CD34^+ cells are studies using methods adapted from Sun et al. Sun et al., Br J Haematol. 197:97-109 (2022), the disclosure of which is herein incorporated by reference in its entirety. HbF-positive cells (F cells) are quantified by flow cytometry after compound exposure. Globin gene mRNA abundance is determined by quantitative real-time polymerase chain reaction (qRT-PCR).

SCD mice = experiment: Effects on SCD mice (globin gene expression by qRT-PCR, F cells in peripheral blood by flow cytometry), Example 8; format: in vivo
Experimental: The effects of the compounds and formulations described in Sections 3.2 and 3.3 on SCD mice are studied using methods adapted from Sun et al., Br J Haematol. 197:97-109 (2022), the disclosure of which is herein incorporated by reference in its entirety. Relative mRNA abundance of PGC-1α and globin gene expression are determined by quantitative real-time polymerase chain reaction (qRT-PC R). HbF-positive cells (F cells) in peripheral blood of treated SCD mice are quantified by flow cytometry

[2] = test system: human primary erythroid progenitor CD34+ cells; details: cited from earlier work
older mice = details: cited from earlier work
sickle mice = details: cited from earlier work
[3] = test system: acute systemic immune activation, including cytokine release syndrome (CRS); details: cited from earlier work
[4] = test system: Ppargc1α (PGC-1α) expression; details: cited from earlier work
[5] = test system: murine models of neurodegenerative diseases; details: cited from earlier work
Solubility (statement) = format: physicochemical
Source text: Oral administration is preferred to parenteral administration for chronic life-long treatment, as is required for treating hemoglobinopathies such as sickle cell disease. […] There is a need, therefore, for agents that increase PGC-1α expression that can be administered orally for treatment of hemoglobinopathies such as SCD.

Compound: CC(C)(C)c1ccc(-c2nc3cc(O)ccc3[nH]2)cc1 [Compound 26, 2-(4-tert-Butylphenyl)-1H-benzo[d]imidazol-5-ol]
fetal γ-globin mRNA protein expression [1]: induce
percentage of HbF-positive cells (F cells) [1]: induce
expression of the murine embryonic βh1-globin gene (SCD mice): induce
human γ-globin gene expression (SCD mice): induce

solubility (Solubility (statement)): poorly soluble
Compound: CC(C)(C)c1ccc(-c2nc3ccccc3[nH]2)cc1 [TQS-168, 2-(4-tert-butylphenyl)-1H-benzimidazole]
cell proliferation and differentiation [2]: without significantly affecting
fetal γ-globin mRNA and protein expression [2]: induce
percentage of HbF-positive cell (F cells) [2]: induce
fetal γ-globin mRNA protein expression [1]: induce
percentage of HbF-positive cells (F cells) [1]: induce
behavioral dysfunction (older mice): alleviate
inflammatory cytokine production in microglia (older mice): inhibit
metabolic dysfunction in microglia (older mice): suppress
systemic inflammation (older mice): suppress
expression of the murine embryonic βh1-globin gene (SCD mice): induce
human γ-globin gene expression (SCD mice): induce
expression of the murine embryonic βh1-globin gene (sickle mice): robust expression
γ-globin expression and fetal hemoglobin (HbF) production (sickle mice): induce
acute systemic immune activation, including cytokine release syndrome (CRS) [3]: suppress
Ppargc1α (PGC-1α) expression [4]: activator
disease severity [5]: reduce
myeloid-mediated inflammation [5]: suppress
